Assays:
Assay in all cases: cells
Set-up in all cases: CellTiter-Glo 2.0 luminescence proliferation/viability assay, single agents, human tumour cell line panel
PSN1 = conditions: Homo sapiens, PSN1, 96 h; single agent; read-out: IC50 SMACm
Experimental: (§1) The effect of BETi, SMACm alone or in combination cell viability was determined using a 96-h CellTiter-Glo2.0 proliferation assay. Cells were seeded in assay plates and placed at 37°C with 5% CO2 for twenty-four hours before treatment. Compounds were added in triplicate in gradients of increasing concentrations, in case of SMACm ranging between 4.5 nM and 10 μM and in case of BETi between 1.4 nM and 3 μM. DMSO served as control. Cell viability was measured by luminescence analysis using luminescence read on Envision plate readers (PerkinElmer). An additional set of colorectal cancer cell lines was assayed with technical duplicates and experimental triplicates. Cell viability was measured by luminescence analysis using luminescence read on Tecan Plate reader. The effects of drug combinations were analyzed using the Bliss Independence Model.[34] Synergy score was calculated by the average of 3 highest and 3 lowest BLISS Gaps between predicted and measured POC (Percentage of Control) values. To investigate the synergistic interaction between BI 894999 (hereafter, BETi) and BI 891065 (hereafter, SMACm), we evaluated the in vitro anti-tumor effect of the single agents or the combination in a large panel of 151 cancer cell lines of different tissue origin: CRC, gastric cancer, non-small cell lung cancer (NSCLC), and pancreatic carcinoma (Figures 1C–1F). As a mono-agent, SMACm was able to inhibit cell proliferation only in a limited number of tested cell lines (4%, Table S2). Most of the cell lines responded to inhibition by BETi, with sensitivity ranging from 10 to 100 nM (Figure 1C). Bliss Gap analysis, performed to analyze the effect of the BETi+SMACm combination on tumor cell growth (Figures 1D–1F), unveiled potent synergistic activity across the cell models tested (Figure 1E), independent of tumor type (Figure 1F).  Figure 1 The combinatorial effect of BI 894999 and BI 891065 across a panel of human tumor cell lines (A) Selectivity and potency profiles of BI 891065. Top left, structure of BI 891065. Top right, IC50 values for BI 891065 inhibition of cIAP1, cIAP2, and XIAP. Bottom, physicochemical properties of […]. (B) WES (Simple Western System) analysis of cIAP1, cIAP2, and XIAP levels upon treatment of HT-29 cells with indicated concentrations of BI 891065 for 6 h (C) IC50 values determined in cell proliferation assays (n = 151) individually for BETi BI 894999 and SMACm BI 891065. Each point represents a cell line tested. (D) Example of proliferation assay for synergy analysis in LoVo cell line; shown is combination plate map matrix and the cell growth inhibition (CGI) at the indicated concentrations; CGI values < 100%: tumor cell growth, CGI 100%: tumor cell stasis, and CGI > 100%: tumor cell killing. (E) Synergy scores across the tested panel of cell lines obtained using Bliss synergy analysis. (F) Violin plots showing the synergy scores for BETi and SMACm combination across indications. N is the number of cell lines tested in each indication group.

KP-3 = conditions: 96 h; single agent; read-out: IC50 SMACm
Experimental: as §1

KLM-1 = conditions: KLM1, 96 h; single agent; read-out: IC50 SMACm
Experimental: as §1

HCC1438 = conditions: 96 h; single agent; read-out: IC50 SMACm
Experimental: as §1

C80 = conditions: 96 h; single agent; read-out: IC50 SMACm
Experimental: as §1

SNU-16 = conditions: Homo sapiens, SNU-16, 96 h; single agent; read-out: IC50 SMACm
Experimental: as §1

LS-123 = conditions: Homo sapiens, LS-123, 96 h; single agent; read-out: IC50 SMACm
Experimental: as §1

GCIY = conditions: Homo sapiens, GCIY, 96 h; single agent; read-out: IC50 SMACm
Experimental: as §1

COR-L105 = conditions: Homo sapiens, COR-L105, 96 h; single agent; read-out: IC50 SMACm
Experimental: as §1

NCI-H1838 = conditions: Homo sapiens, NCI-H1838, 96 h; single agent; read-out: IC50 SMACm
Experimental: as §1

KP-2 = conditions: 96 h; single agent; read-out: IC50 SMACm
Experimental: as §1

Gp2D = conditions: GP2d, 96 h; single agent; read-out: IC50 SMACm
Experimental: as §1

HCA46 = conditions: 96 h; single agent; read-out: IC50 SMACm
Experimental: as §1

EBC-1 = conditions: Homo sapiens, EBC-1, 96 h; single agent; read-out: IC50 SMACm
Experimental: as §1

CL14 = conditions: 96 h; single agent; read-out: IC50 SMACm
Experimental: as §1

- IC50 (HCC1438): 2.29 µM
- IC50 (SNU-16): 4.32 µM
- IC50 (NCI-H1838): 4.25 µM
SMILES: CN[C@@H](C)C(=O)Nc1ccc(-c2c(-c3cccnc3OC)nc3cc(C)ccn23)c(C#Cc2ccc3c(C)nccc3c2)n1 [SMACm, BI 891065]
- IC50 (PSN1): 7.21 µM
- IC50 (KP-3): 4.62 µM
- IC50 (KLM-1): 3.93 µM
- IC50 (C80): 1.81 µM
- IC50 (LS-123): 4.86 µM
- IC50 (GCIY): 4.01 µM
- IC50 (COR-L105): 4.47 µM
- IC50 (KP-2): 4.62 µM
- IC50 (Gp2D): 3.62 µM
- IC50 (HCA46): 3.54 µM
- IC50 (EBC-1): 2.23 µM
- IC50 (CL14): 1.91 µM

Source: PMC12490239, “Combining BET inhibition with SMAC mimetics restricts tumor growth and triggers immune surveillance in preclinical cancer models” (Cell Reports Medicine, 2025)
